Values joined by “and” are separate entries in the source; they are usually repeats but may differ in a detail not shown here. Equal entries are not always repeated.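 Results reflect a 48-hour exposure of cells in 96-well plates to compound at five concentrations. GI50 is the concentration that inhibits growth by half. The concentration for full growth arrest is given as TGI.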
What was measured:
Assay in all cases: DTP human tumour cell line panel, 48 h
[1] = tested on: OVCAR-8 ovarian
[2] = tested on: SK-MEL-2 melanoma
[3] = tested on: 786-0 renal
[4] = tested on: MOLT-4 leukemia
[5] = tested on: MDA-MB-435
[6] = tested on: HCT-116 colon
[7] = tested on: SK-OV-3 ovarian
[8] = tested on: SF-268 CNS
[9] = tested on: SNB-75 CNS
[10] = tested on: HCT-15 colon

Compound	GI50 [1]	TGI [1]	GI50 [2]	TGI [2]	GI50 [3]	TGI [3]	GI50 [4]	TGI [4]	GI50 [5]	TGI [5]	GI50 [6]	TGI [6]	GI50 [7]	TGI [7]	GI50 [8]	TGI [8]	GI50 [9]	TGI [9]	GI50 [10]	TGI [10]
COc1ccc(/C=C\c2cc(OC)c(OC)c(OC)c2)cc1OCC(=O)Nc1nc2ccc(C(F)(F)F)cc2s1	3.86 µM	> 100 µM	3.98 µM	> 100 µM	6.69 µM	> 100 µM	3750 nM	> 100 µM	1840 nM	5.91 µM	3.29 µM	> 100 µM	3.29 µM	17.2 µM	3.85 µM	48.6 µM	1580 nM	6.47 µM	3.24 µM	> 100 µM
CCOC(CN=c1nc(N(C)C)ss1)OCC		46.7 µM		48.9 µM		39.7 µM		25.4 µM		32.4 µM		31.2 µM		> 100 µM		59.8 µM		78.4 µM		42.8 µM
Cc1ccc2c(N)c(C(=O)N[C@H]3CCc4cc(N5CC6CCC(C5)N6)ccc4C3)sc2n1	0.385 µM	2.83 µM	0.44 µM	1.29 µM	0.497 µM	3.86 µM	174 nM	4.49 µM	359 nM	2.34 µM	0.251 µM	3.44 µM	0.422 µM	2.99 µM	0.42 µM	2.51 µM	355 nM	2.83 µM	0.34 µM	2.36 µM
CC[N+](CC)(CC)CCCn1c2c(c3ccccc3c1=O)C(=O)c1ccccc1-2	3.66 µM	22.8 µM	21.8 µM	53.4 µM	7.35 µM	32 µM	5580 nM	> 100 µM	18300 nM	62.6 µM	1.95 µM	9.27 µM	52.6 µM	> 100 µM	3.42 µM	24.4 µM	80000 nM	> 100 µM	4.97 µM	> 100 µM
O=C1C=Cc2ccccc2/C1=C/c1[nH]c(=O)[nH]c1O	9.6 µM	62.5 µM	2.97 µM	8.71 µM	5.41 µM	29.5 µM	4190 nM	> 100 µM	1760 nM	4.64 µM	4.12 µM	18.3 µM	3.66 µM	23.2 µM	7.27 µM	> 100 µM	2140 nM	7.44 µM	7.44 µM	> 100 µM
OCCCCC#Cc1ccccc1C#Cc1ccccc1C(F)(F)F	13.3 µM	31.6 µM	15.6 µM	32.6 µM	10.3 µM	24.9 µM	2630 nM	12.9 µM	847 nM	2.75 µM	6.46 µM	21.3 µM	17.7 µM	32.7 µM	17.4 µM	33.7 µM	18700 nM	35.9 µM	3.5 µM	16 µM
CNC(=O)c1cccc(-c2ccc3c(N4CCOC[C@@H]4C)nc(N4CCOC[C@@H]4C)nc3n2)c1	0.162 µM and 0.313 µM and 0.164 µM	27.7 µM and > 10 µM and 3.42 µM	0.0889 µM and 0.216 µM and 0.215 µM	5.47 µM and 1.16 µM and 0.912 µM	0.229 µM and 0.252 µM	> 32.8 µM	101 nM and 146 nM and 214 nM	28.9 µM and > 10 µM and > 44.4 µM	92.5 nM and 204 nM and 147 nM	1.8 µM and 1.34 µM and 1.27 µM	0.303 µM and 0.451 µM and 0.407 µM	> 100 µM	0.0333 µM and 0.0903 µM and 0.0446 µM	0.479 µM and 0.451 µM and 0.438 µM	0.0653 µM and 0.209 µM and 0.212 µM	10.5 µM and > 6.59 µM and > 100 µM	27 nM and 117 nM and 31.6 nM	0.373 µM and 0.647 µM and 0.403 µM	0.0909 µM and 0.267 µM and 0.16 µM	> 100 µM
C/C=C(\C)C(=O)O[C@H]1C=CC(=O)O[C@H]1CNC(=O)[C@H](C)O	24.3 µM	65.9 µM	20.1 µM	51 µM	13.3 µM	26.1 µM	21400 nM	46.6 µM	20100 nM	44.7 µM	13.1 µM	26 µM	52.1 µM	> 100 µM	16.7 µM	35.7 µM	22300 nM	48.8 µM	15.6 µM	32 µM
COC(=O)/C(=C\c1c(C)[nH]c2ccccc12)S(=O)(=O)c1ccccc1	3.94 µM	> 100 µM	10.6 µM	25.5 µM	8.23 µM	24.1 µM	1900 nM	> 100 µM	2860 nM	13.8 µM	3.8 µM	17.3 µM	9.27 µM	41.4 µM	3.33 µM	11.1 µM	3080 nM	14.6 µM	3.07 µM	12.8 µM
CC(C)(O)C1OCC(C2CCC3(C)C4=CCC5C(C)(C)C(O)CCC5(C)C4CCC23C)CC1O (stereo not given)		27.9 µM		48.7 µM		27.3 µM		41.9 µM		28.8 µM		27.6 µM		31.5 µM		30.4 µM		34.6 µM		28 µM
C=C1C(=O)OC2CC3(CO3)C3C(O)C(O)CC3(C)CC12 (stereo not given)		45.3 µM		38.4 µM		> 100 µM		46.7 µM		83.1 µM		38 µM		> 100 µM		> 100 µM		> 100 µM		34.1 µM
O=C(NC(=S)Nc1ccc(Cl)cc1)c1ccccc1	> 100 µM	> 100 µM	> 100 µM	> 100 µM	> 87.4 µM	> 100 µM	> 100000 nM	> 100 µM	> 100000 nM	> 100 µM	> 100 µM	> 100 µM	> 100 µM	> 100 µM	76 µM	> 100 µM	> 49700 nM	> 100 µM	> 100 µM	> 100 µM
COc1ccc(-c2nc(-c3cn(C)c4ncccc34)cs2)cc1	> 100 µM	> 100 µM	55.3 µM	> 100 µM	51.5 µM	> 100 µM	18900 nM	> 100 µM	2790 nM	> 100 µM	38.4 µM	> 100 µM	> 100 µM	> 100 µM	82.6 µM	> 100 µM	> 100000 nM	> 100 µM	25.3 µM	> 100 µM

Source: PubChem BioAssay (NCI)
